Consider three compounds from patent publication US20220000117A1, “METHOD FOR CONTROLLING DISEASES IN SMALL GRAIN CEREALS, SEED OF SMALL GRAIN CEREALS, AND METHOD FOR SUPPRESSING LODGING DAMAGE IN SMALL GRAIN CEREALS” (KUMIAI CHEMICAL INDUSTRY CO., LTD., priority 2019, published 2022).

For assay [1], the system named is septoria leaf blotch. As to the kind of experiment: Test Example 8: control test of septoria leaf blotch of wheat, cup in greenhouse, inoculated, wheat variety Apache. It counts as in vivo, Septoria tritici. Details: key to Degree of Disease Occurrence: Σ(index×leaves of index)/(4×investigated leaves)×100; 0–100 scale. The settings on record: for Degree of Disease Occurrence: 31 days after seeding. Here is the method:
(§1) Degree of Disease Occurrence=Σ(Index×Number of Leaves of Index)/(4×Number of Investigated Leaves)×100 (1)
Seed having a mass of 1 kg of wheat (variety: Apache) was mixed into 100 ml of suspension water containing from 0.5 g or 5 g of the 3,4-dichloroisothiazole derivative of the compound (6) or (3) (synthesis was performed in accordance with a known method, formulated 10% wettable powder was used) and air-dried, and then, 12 seeds were sown in a plastic cup having a diameter of 6 cm containing river sand and managed in a greenhouse. The number of emerged seeds was investigated 12 days after seeding, and an emergence rate was calculated. In Comparative Examples 19 to 22, 20 ml of suspension water of an active ingredient, which had been adjusted to have a concentration shown in Table 9, was sprayed in a frame of 45 cm×45 cm in which a pot of wheat seedlings was placed (corresponding to 1000 L/ha) 12 days after seeding. A spore suspension in which conidiospores of septoria leaf blotch are suspended were sprayed and inoculated on leaves of wheat seedlings 12 days after seeding (after the sprayed liquid was dried in the case of Comparative Examples), a lesion area ratio of septoria leaf blotch in a second leaf was investigated 31 days after seeding according to the criteria in Table 1, and the degree of disease occurrence was calculated by the above calculation formula (1).

Assay [2] has as its system powdery mildew. Description: Test Example 1: control test of wheat powdery mildew, field, wheat variety Haruyutaka. It counts as in vivo, Blumeria graminis. The settings on record: for Degree of Disease Occurrence / Disease Leaf Rate (%): flag leaves, 79 days after seeding. Here is the method:
Seed of wheat (variety: Haruyutaka) sterilized in advance with commercial Benlate T wettable powder 20 (“Benlate” is a registered trademark) was used. In Example 1, seed having a mass of 1 kg was mixed into 100 ml of suspension water containing 5 g of dichlobentiazox, air-dried, and then, stripe-sown in a field with a furrow width of 30 cm and a ratio of 163 kg/ha (417 seeds/m^2). In contrast, in Comparative Example 1, seed which had not treated with dichlobentiazox was sown in a field in the same manner, and a spray solution corresponding to that obtained by suspending 500 g of dichlobentiazox in 200 liters of water per 1 ha was sprayed on foliage of wheat three times, during an ear emergence period (63 days after seeding), a flowering period (70 days after seeding), and a flowering end period (77 days after seeding). Similarly, in place of 500 g of dichlobentiazox in Comparative Example 1, 250 g of azoxystrobin (commercial Amistar 20 flowable was used. “Amistar” is a registered trademark) was used in Comparative Example 2, and 125 g of propiconazole (commercial Tilt emulsifiable concentrate 25 was used, “Tilt” is a registered trademark) was used in Comparative Example 3. The presence or absence of disease occurrence and a lesion area ratio of powdery mildew in flag leaves of 30 stems were investigated 79 days after seeding according to the criteria in Table 1, and a disease leaf rate and the degree of disease occurrence were calculated by the following calculation formula (1).
as §1

Assay [3] concerns powdery mildew. As to the kind of experiment: Test Example 2: control test of wheat powdery mildew, pot in greenhouse, inoculated, wheat variety Norin No. 61. It counts as in vivo, Blumeria graminis. The settings on record: for Degree of Disease Occurrence: inoculated day 49, first leaf, 59 days after seeding. Here is the method:
as §1
Seed having a mass of 1 kg of wheat (variety: Norin No. 61) was mixed into 100 ml of suspension water containing 5 g or 0.5 g of dichlobentiazox or isotianil (commercial Routine flowable was used, “Routine” is a registered trademark) and air-dried, and then, 15 seeds were sown in a plastic pot of 9 cm×9 cm containing horticultural soil and managed in a greenhouse. The number of emerged seeds was investigated 10 days after seeding, and an emergence rate was calculated (Examples 2 to 5). On day 49 after seeding, conidiospores of powdery mildew were sifted over leaves of wheat seedlings and inoculated onto the leaves, a lesion area ratio of powdery mildew in a first leaf was investigated 59 days after seeding according to the criteria in Table 1, and the degree of disease occurrence was calculated by the above calculation formula (1).

Assay [4] has as its system wheat (variety: Haruyutaka). Description: Test Example 6: evaluation test of shortening of wheat (culm length, seed yield), field. In kind it is in vivo.
For assay [5], the system named is septoria leaf blotch. Description: Test Example 7: control test of septoria leaf blotch of wheat, field, wheat variety TRAPEZ. It counts as in vivo, Septoria tritici. The settings on record: for Degree of Disease Occurrence: flag leaves, 219 days after seeding. Here is the method:
as §1
Seed of wheat (variety: TRAPEZ) was used. On seed having a mass of 1 kg, 20 ml of suspension water containing 0.5 g or 5 g of dichlobentiazox or isotianil was sprayed. In Examples 16, 17, and 18, the seed treated with the chemical was stripe-sown with a ratio of 100 kg/ha. In contrast, in Comparative Example 17, seed which had not treated with dichlobentiazox or isotianil was sown in a field in the same manner, and a spray solution corresponding to that obtained by suspending 750 g of chlomthalonil (commercial FUNGISTOP was used, “FUNGISTOP” is a registered trademark) in 200 liters of water per 1 ha was sprayed on foliage of wheat 154 days and 184 days after seeding. The severity of disease occurrence of septoria leaf blotch in flag leaves of 25 stems was investigated 219 days after seeding according to the criteria in Table 1, and the degree of disease occurrence was calculated by the above calculation formula (1).

Setting [6] is: Foliage Treatment, spray 50 ppm suspension water (50 g/ha) day 12, second leaf.
[7] abbreviates: Foliage Treatment, spray 500 ppm suspension water (500 g/ha) day 12, second leaf.
Setting [8] is: Seed Treatment 0.5 g/Seed 1 kg, inoculated day 12, second leaf.
Where [9] appears, read: Seed Treatment 5 g/Seed 1 kg (500 g/ha), inoculated day 12, second leaf.
Setting [10] is: Foliage Treatment, spray 500 g/ha three times.
[11] abbreviates: Seed Treatment 5 g/Seed 1 kg (815 g/ha).
Setting [12] is: Seed Treatment 0.5 g/Seed 1 kg (50 g/ha).
[13] abbreviates: Seed Treatment 5 g/Seed 1 kg (500 g/ha).

Each structure is given as a SMILES string.

Turning to `O=C(O)c1snc(Cl)c1Cl` [Compound (6)], the “Degree of Disease Occurrence” value in assay [1] (setting [6]) worked out at 29.5; in assay [1] (setting [7]) it was 48.5; in assay [1] (setting [8]), 16.1; in assay [1] (setting [9]), 4.2. The “disease occurrence of septoria leaf blotch, seed treatment compared with spraying on foliage during a growing period” value in assay [1] is listed as “suppressed lower”.
Consider `O=S1(=O)N=C(OCc2snc(Cl)c2Cl)c2ccccc21` [Compound (1), Dichlobentiazox], for which the “disease occurrence of powdery mildew, seed treatment compared with foliage spraying of dichlobentiazox (Comparative Example 1)” value in assay [2] (Example 1, seed treatment) was “more suppressed”. Besides, the “Degree of Disease Occurrence” value worked out at 12.6 in assay [2] (setting [10]); 0.6 in assay [2] (setting [11]); 10.7 in assay [3] (setting [12]); 0.0 in assay [3] (setting [13]); 2.8 in assay [5] (setting [12]); 1.9 in assay [5] (setting [13]). In addition, the “Disease Leaf Rate (%)” value amounted to 58.9% in assay [2] (setting [10]) and 4.4% in assay [2] (setting [11]). Further, the “disease occurrence of powdery mildew, seed treatment compared with foliage spraying of azoxystrobin and propiconazole (Comparative Examples 2 and 3)” value in assay [2] (seed treatment) is “more suppressed”. Further, the “disease occurrence under artificial inoculation of powdery mildew” value in assay [3] (seed treatment) is recorded as “the disease occurrence was suppressed”. Further, the “Culm Length (cm)” value in assay [4] (Dichlobentiazox Seed Treatment 5 g/Seed 1 kg plus Propiconazole foliage spray 120 g/ha four times, harvested 106 days after seeding) amounted to 80.1 cm. Also, the “Seed Yield” value in assay [4] (Dichlobentiazox Seed Treatment 5 g/Seed 1 kg plus Propiconazole foliage spray 120 g/ha four times, wheat in 3 m2, 106 days after seeding) came to 1015 g. Moreover, the “culm length in harvesting time, compared with no seed treatment” value in assay [4] (seed treatment) is “slightly shorter”. Also, the “yield amount of wheat grains, compared with no seed treatment” value in assay [4] (seed treatment) is “slightly higher”. Moreover, the “disease occurrence of septoria leaf blotch, seed treatment compared with foliage spraying of chlorothalonil” value in assay [5] (seed treatment) was “more suppressed”.
As to `OCc1snc(Cl)c1Cl` [Compound (3)], the “Degree of Disease Occurrence” value in assay [1] (setting [6]) was 29.3; in assay [1] (setting [7]), 37.5; in assay [1] (setting [8]), 22.2; in assay [1] (setting [9]) it was 8.2. Further, the “disease occurrence of septoria leaf blotch, seed treatment compared with spraying on foliage during a growing period” value in assay [1] is given as “suppressed lower”.
